The source of these data is patent US12570666B2, “Furoindazole derivatives” (Bayer Aktiengesellschaft, priority 2019, dated 2026).

Some results are limits rather than exact numbers.

Broadly, the IC50 is the midpoint of a concentration-inhibition curve.

This assay deals with T1, human GPR84 receptor (Homo sapiens, UniProt Q9NQS5).
T1 construct: frozen aliquots prepared by acCELLerate; host or cells: CHO-K1
T1 sequence (Q9NQS5 whole entry): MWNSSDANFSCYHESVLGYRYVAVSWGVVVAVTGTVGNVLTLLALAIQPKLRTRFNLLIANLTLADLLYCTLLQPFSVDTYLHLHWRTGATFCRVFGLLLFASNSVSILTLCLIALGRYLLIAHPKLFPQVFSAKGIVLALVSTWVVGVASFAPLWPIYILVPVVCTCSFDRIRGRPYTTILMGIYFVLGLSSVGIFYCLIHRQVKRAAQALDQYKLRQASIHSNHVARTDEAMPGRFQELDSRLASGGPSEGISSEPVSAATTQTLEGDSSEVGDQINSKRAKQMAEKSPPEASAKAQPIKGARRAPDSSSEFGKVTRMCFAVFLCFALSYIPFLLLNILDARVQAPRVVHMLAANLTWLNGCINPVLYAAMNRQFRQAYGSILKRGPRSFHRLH
The experiment in a line: cAMP HTRF assay for identification of cellular GPR84 antagonists. It is filed as cell-based. To be noted: CHO-K1 cells stably expressing human GPR84; Forskolin + agonist 6-OAU (EC80); average or median values. The gist of the method:
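Forskolin-stimulated CHO-K1 cells stably expressing human GPR84, agonist-suppressed cAMP measured by HTRF (665/620 ratio) after lysis. Compounds at 11 concentrations, 20 μM to 0.07 nM, duplicate; normalized to DMSO and no-agonist controls; IC50 by 4-parameter fit.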
In general terms: TR-FRET usually uses a lanthanide donor and a delayed reading to cut background.
For the compound `Cc1c(C(=O)NCc2ncco2)oc2c1-c1nn(C[C@H]3COCCO3)cc1C1(CC1)C2` [Example 128, 2′-[(2S)-1,4-dioxan-2-ylmethyl]-8′-methyl-N-(1,3-oxazol-2-ylmethyl)-2′,5′-dihydrospiro[cyclopropane-1,4′-furo[2,3-g]indazole]-7′-carboxamide], the IC50 was determined as 110 nM.
The figure for `Cc1c(C(=O)NC[C@@H]2CCCO2)oc2c1-c1nn(CC3CC3)cc1C1(CC1)C2` [Example 129, 2′-(cyclopropylmethyl)-8′-methyl-N-[(2S)-tetrahydrofuran-2-ylmethyl]-2′,5′-dihydrospiro[cyclopropane-1,4′-furo[2,3-g]indazole]-7′-carboxamide] is 55 nM.
The figure for `Cc1c(C(=O)NC[C@H]2COCCO2)oc2c1-c1nn(CC3CC3)cc1C1(CC1)C2` [Example 130, 2′-(cyclopropylmethyl)-N-[(2S)-1,4-dioxan-2-ylmethyl]-8′-methyl-2′,5′-dihydrospiro[cyclopropane-1,4′-furo[2,3-g]indazole]-7′-carboxamide] is 1290 nM; for `Cc1c(C(=O)NC[C@@H]2COCCO2)oc2c1-c1nn(CC3CC3)cc1C1(CC1)C2` [Example 131, 2′-(cyclopropylmethyl)-N-[(2R)-1,4-dioxan-2-ylmethyl]-8′-methyl-2′,5′-dihydrospiro[cyclopropane-1,4′-furo[2,3-g]indazole]-7′-carboxamide] it is 35 nM; for `Cc1c(C(=O)NC[C@H]2COCCO2)oc2c1-c1nn(Cc3ccccn3)cc1C1(CCC1)C2` [Example 133] it is 940 nM.
Regarding `Cc1c(C(=O)NC[C@@H]2COCCO2)oc2c1-c1nn(Cc3ccccn3)cc1C1(CCC1)C2` [Example 134], the IC50 was 43 nM.
Turning to `[2H]C([2H])(c1ccccc1)n1cc2c(n1)-c1c(oc(C(=O)NC[C@@H]3CCCO3)c1C)CC2` [Example 135, 8-methyl-2-[phenyl(^2H2)methyl]-N-[(2S)-tetrahydrofuran-2-ylmethyl]-4,5-dihydro-2H-furo[2,3-g]indazole-7-carboxamide], the IC50 stood at 26 nM.
Under `[2H]C([2H])(c1ccccc1)n1cc2c(n1)-c1c(oc(C(=O)NC[C@@H]3COCCO3)c1C)CC2` [Example 136, N-[(2R)-1,4-dioxan-2-ylmethyl]-8-methyl-2-[phenyl(^2H2)methyl]-4,5-dihydro-2H-furo[2,3-g]indazole-7-carboxamide] stands 25 nM; under `Cc1c(C(=O)NC[C@@H]2CCCO2)oc2c1-c1nn(Cc3noc(C4CC4)n3)cc1CC2` [Example 137, 2-[(5-cyclopropyl-1,2,4-oxadiazol-3-yl)methyl]-8-methyl-N-[(2S)-tetrahydrofuran-2-ylmethyl]-4,5-dihydro-2H-furo[2,3-g]indazole-7-carboxamide], 45 nM.
Under `Cc1c(C(=O)NC[C@@H]2COCCO2)oc2c1-c1nn(Cc3noc(C4CC4)n3)cc1CC2` [Example 138] stands 43 nM; under `Cc1c(C(=O)NC[C@@H]2CCCO2)oc2c1-c1nn(CCNC(=O)OC(C)(C)C)cc1CC2` [Example 139, tert-butyl [2-(8-methyl-7-{[(2S)-tetrahydrofuran-2-ylmethyl]carbamoyl}-4,5-dihydro-2H-furo[2,3-g]indazol-2-yl)ethyl]carbamate], 80 nM; under `Cc1c(C(=O)NC[C@@H]2COCCO2)oc2c1-c1nn(CCNC(=O)OC(C)(C)C)cc1CC2` [Example 140, tert-butyl [2-(7-{[(2R)-1,4-dioxan-2-ylmethyl]carbamoyl}-8-methyl-4,5-dihydro-2H-furo[2,3-g]indazol-2-yl)ethyl]carbamate], 83 nM.
Under `Cc1c(C(=O)NC[C@@H]2CCCO2)oc2c1-c1nn(CCN3CCN(C(=O)OC(C)(C)C)CC3)cc1CC2` [Example 141, tert-butyl 4-[2-(8-methyl-7-{[(2S)-tetrahydrofuran-2-ylmethyl]carbamoyl}-4,5-dihydro-2H-furo[2,3-g]indazol-2-yl)ethyl]piperazine-1-carboxylate] stands 700 nM; under `Cc1c(C(=O)NC[C@@H]2COCCO2)oc2c1-c1nn(CCN3CCN(C(=O)OC(C)(C)C)CC3)cc1CC2` [Example 142, tert-butyl 4-[2-(7-{[(2R)-1,4-dioxan-2-ylmethyl]carbamoyl}-8-methyl-4,5-dihydro-2H-furo[2,3-g]indazol-2-yl)ethyl]piperazine-1-carboxylate], 670 nM; under `Cc1c(C(=O)NC[C@@H]2CCCO2)oc2c1-c1nn(C[C@H]3COCCO3)cc1C1(CCC1)C2` [Example 143, 2′-[(2S)-1,4-dioxan-2-ylmethyl]-8′-methyl-N-[(2S)-tetrahydrofuran-2-ylmethyl]-2′,5′-dihydrospiro[cyclobutane-1,4′-furo[2,3-g]indazole]-7′-carboxamide], 77 nM.
For the compound `Cc1c(C(=O)NC[C@H]2COCCO2)oc2c1-c1nn(C[C@H]3COCCO3)cc1C1(CCC1)C2` [Example 144, N,2′-bis[(2S)-1,4-dioxan-2-ylmethyl]-8′-methyl-2′,5′-dihydrospiro[cyclobutane-1,4′-furo[2,3-g]indazole]-7′-carboxamide], the IC50 was found to be 7390 nM.
As to `Cc1c(C(=O)NC[C@@H]2COCCO2)oc2c1-c1nn(C[C@H]3COCCO3)cc1C1(CCC1)C2` [Example 145], the IC50 is 110 nM.
Under `Cc1c(C(=O)NC[C@@H]2CCCO2)oc2c1-c1nn(Cc3ccc(C(=O)NC[C@@H]4CCCO4)nc3)cc1CC2` [Example 146, 8-methyl-N-[(2S)-tetrahydrofuran-2-ylmethyl]-2-[(6-{[(2S)-tetrahydrofuran-2-ylmethyl]carbamoyl}pyridin-3-yl)methyl]-4,5-dihydro-2H-furo[2,3-g]indazole-7-carboxamide] stands 47 nM; under `Cc1c(C(=O)NC[C@@H]2COCCO2)oc2c1-c1nn(Cc3ccc(C(=O)NC[C@@H]4COCCO4)nc3)cc1CC2` [Example 147, N-[(2R)-1,4-dioxan-2-ylmethyl]-2-[(6-{[(2R)-1,4-dioxan-2-ylmethyl]carbamoyl}pyridin-3-yl)methyl]-8-methyl-4,5-dihydro-2H-furo[2,3-g]indazole-7-carboxamide], 130 nM.
For `Cc1c(C(=O)NC[C@@H]2CCCO2)oc2c1-c1nn(Cc3ccccn3)cc1C(C)(C)C2` [Example 148, 4,4,8-trimethyl-2-(pyridin-2-ylmethyl)-N-[(2S)-tetrahydrofuran-2-ylmethyl]-4,5-dihydro-2H-furo[2,3-g]indazole-7-carboxamide], the IC50 was determined as 35 nM.
In the case of `Cc1c(C(=O)NC[C@@H]2CCCO2)oc2c1-c1nn(Cc3ccccn3)cc1C1(CC1)C2` [Example 149], the IC50 stood at 10 nM.
Under `Cc1c(C(=O)NC[C@@H]2COCCO2)oc2c1-c1nn(Cc3ccccn3)cc1C1(CC1)C2` [Example 150] stands 11 nM.
Under `Cc1c(C(=O)NC[C@@H]2CCCO2)oc2c1-c1nn(C(=O)N(C)C)cc1C1(CC1)C2` [Example 153] stands 240 nM.
For `Cc1c(C(=O)NC[C@@H]2COCCO2)oc2c1-c1nn(C(=O)N(C)C)cc1C1(CC1)C2` [Example 154], the IC50 worked out at 270 nM.
The figure for `Cc1c(C(=O)NC[C@@H]2CCCO2)oc2c1-c1nn(CC3(F)CN(C(=O)OCc4ccccc4)C3)cc1CC2` [Example 155, benzyl 3-fluoro-3-[(8-methyl-7-{[(2S)-tetrahydrofuran-2-ylmethyl]carbamoyl}-4,5-dihydro-2H-furo[2,3-g]indazol-2-yl)methyl]azetidine-1-carboxylate] is 13 nM; for `Cc1c(C(=O)NC[C@@H]2CCCO2)oc2c1-c1nn(CC3CN(C(=O)OCc4ccccc4)C3)cc1CC2` [Example 156, benzyl 3-[(8-methyl-7-{[(2S)-tetrahydrofuran-2-ylmethyl]carbamoyl}-4,5-dihydro-2H-furo[2,3-g]indazol-2-yl)methyl]azetidine-1-carboxylate] it is 9 nM.
The figure for `Cc1c(C(=O)NC[C@@H]2CCCO2)oc2c1-c1nn(CC3(F)CNC3)cc1CC2` [Example 157, 2-[(3-fluoroazetidin-3-yl)methyl]-8-methyl-N-[(2S)-tetrahydrofuran-2-ylmethyl]-4,5-dihydro-2H-furo[2,3-g]indazole-7-carboxamide] is 180 nM; for `Cc1c(C(=O)NC[C@@H]2CCCO2)oc2c1-c1nn(CC3CNC3)cc1CC2` [Example 158, 2-(azetidin-3-ylmethyl)-8-methyl-N-[(2S)-tetrahydrofuran-2-ylmethyl]-4,5-dihydro-2H-furo[2,3-g]indazole-7-carboxamide] it is 1550 nM; for `Cc1c(C(=O)NC[C@@H]2COCCO2)oc2c1-c1nn(CC3CNC3)cc1CC2` [Example 159, 2-(azetidin-3-ylmethyl)-N-[(2R)-1,4-dioxan-2-ylmethyl]-8-methyl-4,5-dihydro-2H-furo[2,3-g]indazole-7-carboxamide] it is 1960 nM.
The figure for `Cc1c(C(=O)NC[C@@H]2CCCO2)oc2c1-c1nn(CCN)cc1CC2` [Example 160, 2-(2-aminoethyl)-8-methyl-N-[(2S)-tetrahydrofuran-2-ylmethyl]-4,5-dihydro-2H-furo[2,3-g]indazole-7-carboxamide] is 2540 nM.
Take `Cc1c(C(=O)NC[C@@H]2COCCO2)oc2c1-c1nn(CCN)cc1CC2` [Example 161, 2-(2-aminoethyl)-N-[(2R)-1,4-dioxan-2-ylmethyl]-8-methyl-4,5-dihydro-2H-furo[2,3-g]indazole-7-carboxamide]: the IC50 came to 6520 nM.
Under `Cc1c(C(=O)NC[C@@H]2CCCO2)oc2c1-c1nn(CCN3CCNCC3)cc1CC2` [Example 162, 8-methyl-2-[2-(piperazin-1-yl)ethyl]-N-[(2S)-tetrahydrofuran-2-ylmethyl]-4,5-dihydro-2H-furo[2,3-g]indazole-7-carboxamide] stands 6740 nM; under `Cc1c(C(=O)NC[C@@H]2COCCO2)oc2c1-c1nn(CCN3CCNCC3)cc1CC2` [Example 163, N-[(2R)-1,4-dioxan-2-ylmethyl]-8-methyl-2-[2-(piperazin-1-yl)ethyl]-4,5-dihydro-2H-furo[2,3-g]indazole-7-carboxamide], greater than 20000 nM.
